Here are results for 26 molecules from patent US20220324865A1 (Bayer Aktiengesellschaft, priority 2018, published 2022).

The target in the test is T1, human EP3 receptor (Homo sapiens, UniProt P43115).
T1 construct: expressed in transfected cells; host or cells: CHO K1 (Chinese Hamster Ovary), stably co-transfected with Galpha16 and mitochondrial clytin
T1 sequence (P43115 1-390): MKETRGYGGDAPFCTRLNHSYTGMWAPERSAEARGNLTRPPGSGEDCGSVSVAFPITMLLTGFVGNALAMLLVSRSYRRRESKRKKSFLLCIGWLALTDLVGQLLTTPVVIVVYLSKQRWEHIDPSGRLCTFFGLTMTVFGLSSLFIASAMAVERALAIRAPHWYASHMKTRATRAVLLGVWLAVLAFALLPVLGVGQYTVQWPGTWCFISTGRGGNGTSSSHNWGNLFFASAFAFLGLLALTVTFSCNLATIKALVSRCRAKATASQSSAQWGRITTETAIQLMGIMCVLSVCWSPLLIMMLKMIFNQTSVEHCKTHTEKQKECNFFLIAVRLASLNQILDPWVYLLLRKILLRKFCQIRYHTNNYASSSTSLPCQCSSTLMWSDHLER
Nature of the test: Cellular in vitro assay for determining EP3 receptor activity (human EP3 cell line, sulprostone-stimulated calcium luminescence). The class given is cell-based. The conditions noted are these: CHO cells expressing human EP3 and mitochondrial Clytin; antagonist mode, sulprostone at EC50; read-out: EP3 CHO mtCLY ANTAG IC50. In outline: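 Antagonist activity was measured as inhibition of the luminescent calcium signal elicited by EC50 sulprostone, following 10 min compound pretreatment. The cell line was recombinant CHO K1 co-expressing human EP3, Gα16 and the photoprotein Clytin, reconstituted with coelenterazine.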
Regarding `COc1ccc(C2(NC(=O)c3cc4c(=O)[nH]c(-c5ccc(C)c(C)c5)cn4n3)CN(C(=O)OC(C)(C)C)C2)cc1` [Example 1-64, tert.-Butyl 3-({[6-(3,4-dimethylphenyl)-4-oxo-4,5-dihydropyrazolo[1,5-a]pyrazin-2-yl]carbonyl}-amino)-3-(4-methoxyphenyl)azetidine-1-carboxylate], the IC50 came out at 4.55 nM.

Consider `COC(=O)N1CC(NC(=O)c2cc3c(=O)[nH]c(-c4ccc(C)c(C)c4)cn3n2)(c2ccc(OC)cc2)C1` [Example 1-66, Methyl 3-({[6-(3,4-dimethylphenyl)-4-oxo-4,5-dihydropyrazolo[1,5-a]pyrazin-2-yl]carbonyl}amino)-3-(4-methoxyphenyl)azetidine-1-carboxylate], for which the IC50 came to 1.65 nM.

On to `Cc1ccc(-c2cn3nc(C(=O)N[C@@H](c4ccc(F)cc4)C(C)(C)O)c(C(F)(F)F)c3c(=O)[nH]2)cc1C` [Example 1-67, 6-(3,4-Dimethylphenyl)-N-[(1S)-1-(4-fluorophenyl)-2-hydroxy-2-methylpropyl]-4-oxo-3-(trifluoro-methyl)-4,5-dihydropyrazolo[1,5-a]pyrazine-2-carboxamide], for which the IC50 is 0.905 nM.

For the molecule `CCn1nccc1CNC(=O)c1nn2c(C)c(-c3ccc4ccccc4c3)[nH]c(=O)c2c1C` [Example 1-68, N-[(1-Ethyl-1H-pyrazol-5-yl)methyl]-3,7-dimethyl-6-(naphthalen-2-yl)-4-oxo-4,5-dihydropyrazolo-[1,5-a]pyrazine-2-carboxamide], the concentration for half-maximal inhibition (IC50) is 1.42 nM.

As for `O=C(N[C@@H](CCO)c1ccc(F)cc1)c1cc2c(=O)[nH]c(-c3ccc4ccccc4c3)cn2n1` [Example 1-69, N-[(1S)-1-(4-Fluorophenyl)-3-hydroxypropyl]-6-(naphthalen-2-yl)-4-oxo-4,5-dihydropyrazolo-[1,5-a]pyrazine-2-carboxamide], the IC50 amounted to 2.25 nM.

Consider `Cc1ccc(-c2cn3nc(C(=O)N[C@@H](CCO)c4ccc(F)cc4)cc3c(=O)[nH]2)cc1C` [Example 1-70, 6-(3,4-Dimethylphenyl)-N-[(1S)-1-(4-fluorophenyl)-3-hydroxpropyl]-4-oxo-4,5-dihydropyrazolo-[1,5-a]pyrazine-2-carboxamide], for which the IC50 turned out to be 3.15 nM.

`N#Cc1c(C(=O)N[C@H](CCO)c2ccc(F)cc2)nn2cc(-c3ccc4ccccc4c3)[nH]c(=O)c12` [Example 1-71, 3-Cyano-N-[(1R)-1-(4-fluorophenyl)-3-hydroxypropyl]-6-(naphthalen-2-yl)-4-oxo-4,5-dihydropyrazolo[1,5-a]pyrazine-2-carboxamide]: the half-maximal inhibitory concentration (IC50) amounted to 1.45 nM.

Turning to `N#Cc1c(C(=O)N[C@@H](CCO)c2ccc(F)cc2)nn2cc(-c3ccc4ccccc4c3)[nH]c(=O)c12` [Example 1-72, 3-Cyano-N-[(1S)-1-(4-fluorophenyl)-3-hydroxpropyl]-6-(naphthalen-2-yl)-4-oxo-4,5-dihydropyrazolo[1,5-a]pyrazine-2-carboxamide], the IC50 is 6.55 nM.

For the molecule `Cc1ccc(-c2cn3nc(C(=O)N[C@H](C)c4ccc(F)cc4)c(C#N)c3c(=O)[nH]2)cc1C` [Example 1-73, 3-Cyano-6-(3,4-dimethylphenyl)-N-[(1R)-1-(4-fluorophenyl)ethyl]-4-oxo-4,5-dihydropyrazolo-[1,5-a]pyrazine-2-carboxamide], the IC50 amounted to 1.3 nM.

Consider `COC[C@@H](NC(=O)c1nn2cc(-c3ccc(C)c(C)c3)[nH]c(=O)c2c1C#N)c1ccccc1` [Example 1-74, 3-Cyano-6-(3,4-dimethylphenyl)-N-[(1S)-2-methoxy-1-phenylethyl]-4-oxo-4,5-dihydropyrazolo-[1,5-a]pyrazine-2-carboxamide], for which the IC50 came out at 0.92 nM.

Consider `Cc1ccc(-c2cn3nc(C(=O)N[C@@H](CCO)c4ccc(F)cc4)c(C#N)c3c(=O)[nH]2)cc1C` [Example 1-75, 3-Cyano-6-(3,4-dimethylphenyl)-N-[(1S)-1-(4-fluorophenyl)-3-hydroxpropyl]-4-oxo-4,5-dihydropyrazolo[1,5-a]pyrazine-2-carboxamide], for which the IC50 was found to be 8.75 nM.

As for `COCc1c(C(=O)N[C@H](CCO)c2ccccc2)nn2cc(-c3ccc4ccccc4c3)[nH]c(=O)c12` [Example 1-76, N-[(1R)-3-Hydroxy-1-phenylpropyl]-3-(methoxymethyl)-6-(naphthalen-2-yl)-4-oxo-4,5-dihydropyrazolo[1,5-a]pyrazine-2-carboxamide], the IC50 came out at 0.725 nM.

For the molecule `O=C(N[C@H](CO)c1ccccc1)c1nn2cc(-c3ccc4ccccc4c3)[nH]c(=O)c2c1C(F)(F)F` [Example 1-77, N-[(1S)-2-Hydroxy-1-phenylethyl]-6-(naphthalen-2-yl)-4-oxo-3-(trifluoromethyl)-4,5-dihydropyrazolo[1,5-a]pyrazine-2-carboxamide], the half-maximal inhibitory concentration (IC50) stood at 1.18 nM.

`O=C(N[C@H]1c2ccccc2C[C@@H]1O)c1nn2cc(-c3ccc4ccccc4c3)[nH]c(=O)c2c1C(F)(F)F` [Example 1-78, N-[(1S,2S)-2-Hydroxy-2,3-dihydro-1H-inden-1-yl]-6-(naphthalen-2-yl)-4-oxo-3-(trifluoromethyl)-4,5-dihydropyrazolo[1,5-a]pyrazine-2-carboxamide]: the IC50 was found to be 1.06 nM.

Turning to `COc1ccc([C@@H](C)NC(=O)c2nn3cc(-c4ccc5ccccc5c4)[nH]c(=O)c3c2C(F)(F)F)cn1` [Example 1-79, N-[(1R)-1-(6-Methoxpyridin-3-yl)ethyl]-6-(naphthalen-2-yl)-4-oxo-3-(trifluoromethyl)-4,5-dihydro-pyrazolo[1,5-a]pyrazine-2-carboxamide], the IC50 was determined as 0.6 nM.

Consider `Cc1ccc(-c2cn3nc(C(=O)N[C@H]4c5ccccc5C[C@@H]4O)cc3c(=O)[nH]2)cc1C` [Example 1-80, 6-(3,4-Dimethylphenyl)-N-[(1S,2S)-2-hydroxy-2,3-dihydro-1H-inden-1-yl]-4-oxo-4,5-dihydropyrazolo[1,5-a]pyrazine-2-carboxamide], for which the 50% inhibitory concentration (IC50) stood at 6.68 nM.

With `C[C@@H](NC(=O)c1nn2cc(-c3ccc4ccccc4c3)[nH]c(=O)c2c1C1CC1)c1ccc(F)cc1` [Example 1-81], the IC50 was 1.59 nM.

`CN1CC(NC(=O)c2nn3cc(-c4ccc5ccccc5c4)[nH]c(=O)c3c2C2CC2)(c2ccc(F)cc2)C1` [Example 1-82, 3-Cyclopropyl-N-[3-(4-fluorophenyl)-1-methylazetidin-3-yl]-6-(naphthalen-2-yl)-4-oxo-4,5-dihydropyrazolo[1,5-a]pyrazine-2-carboxamide]: the half-maximal inhibitory concentration (IC50) was 4.6 nM.

On to `Cc1ccc(-c2cn3nc(C(=O)N[C@H](CCO)c4ccc(F)cc4)c(C4CC4)c3c(=O)[nH]2)cc1C` [Example 1-83, 3-Cyclopropyl-6-(3,4-dimethylphenyl)-N-[(1R)-1-(4-fluorophenyl)-3-hydroxpropyl]-4-oxo-4,5-dihydropyrazolo[1,5-a]pyrazine-2-carboxamide], for which the IC50 is 0.523 nM.

Consider `Cc1ccc(-c2cn3nc(C(=O)N[C@H](C)c4ccc(F)cc4)c(C4CC4)c3c(=O)[nH]2)cc1C` [Example 1-84, 3-Cyclopropyl-6-(3,4-dimethylphenyl)-N-[(1R)-1-(4-fluorophenyl)ethyl]-4-oxo-4,5-dihydropyrazolo[1,5-a]pyrazine-2-carboxamide], for which the half-maximal inhibitory concentration (IC50) turned out to be 1.2 nM.

Consider `CCN(CCO)CC(NC(=O)c1cc2c(=O)[nH]c(-c3ccc(C)c(C)c3)cn2n1)c1ccccc1` (centres unmarked) [Example 1-85, 6-(3,4-Dimethylphenyl)-N-[2-[ethyl(2-hydroxyethyl)amino]-1-phenylethyl]-4-oxo-5H-pyrazolo-[1,5-a]pyrazine-2-carboxamide], for which the IC50 was 3 nM.

As to `Cc1ccc(-c2cn3nc(C(=O)NC(CCO)c4ccc(C(F)(F)F)cc4)cc3c(=O)[nH]2)cc1C` (centres unmarked) [Example 1-86, 6-(3,4-Dimethylphenyl)-N-[3-hydroxy-1-[4-(trifluoromethyl)phenyl]propyl]-4-oxo-5H-pyrazolo-[1,5-a]pyrazine-2-carboxamide], the half-inhibitory concentration (IC50) worked out at 0.715 nM.

In the case of `COC[C@@H](NC(=O)c1nn2cc(-c3cnc4cccc(C)c4c3)[nH]c(=O)c2c1C(C)C)c1ccccc1` [Example 1-87, N-[(1S)-2-Methoxy-1-phenylethyl]-6-(5-methylquinolin-3-yl)-4-oxo-3-(propan-2-yl)-4,5-dihydropyrazolo[1,5-a]pyrazine-2-carboxamide], the IC50 worked out at 2.85 nM.

For the molecule `Cc1cccc2ncc(-c3cn4nc(C(=O)N[C@H](CCO)c5ccccc5)c(C(C)C)c4c(=O)[nH]3)cc12` [Example 1-88, N-[(1R)-3-Hydroxy-1-phenylpropyl]-6-(5-methylquinolin-3-yl)-4-oxo-3-(propan-2-yl)-4,5-dihydropyrazolo[1,5-a]pyrazine-2-carboxamide], the half-maximal inhibitory concentration (IC50) worked out at 1.35 nM.

Take `Cc1cccc2ncc(-c3cn4nc(C(=O)N[C@@H](c5ccc(F)cc5)C(C)(C)O)c(C(C)C)c4c(=O)[nH]3)cc12` [Example 1-89, N-[(1S)-1-(4-Fluorophenyl)-2-hydroxy-2-methylpropyl]-6-(5-methylquinolin-3-yl)-4-oxo-3-(propan-2-yl)-4,5-dihydropyrazolo[1,5-a]pyrazine-2-carboxamide]: the IC50 stood at 1.03 nM.

For the molecule `Cc1ccc(-c2cn3nc(C(=O)N[C@H](C)c4ccc(F)cc4)c(C(C)C)c3c(=O)[nH]2)cc1C` [Example 1-90, 6-(3,4-Dimethylphenyl)-N-[(1R)-1-(4-fluorophenyl)ethyl]-4-oxo-3-(propan-2-yl)-4,5-dihydropyrazolo[1,5-a]pyrazine-2-carboxamide], the IC50 came out at 0.515 nM.
